In PubChem BioAssay AID179 (DTP/NCI, 2004):
The source made the active and inactive calls.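 Rule for the calls: active = compounds giving half or more protection of infected cells from virus-caused growth loss, again on retest; inactive = the rest.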

Test system: CEM cells HIV-1 protection, formazan growth assay
Assay: NCI AIDS Antiviral Assay
Details: for IC50: measured here: growth of uninfected CEM cells
Protocol: The ability of compounds to protect human CEM cells from HIV-1 infection is measured as a screen for new compounds capable of inhibiting the HIV virus. Five concentrations of drug were tested on uninfected and infected cells and cell growth was measured using a soluble formazan assay. […] Compounds that provided at least 50% protection were retested. Compounds that provided at least 50% protection on retest were listed as moderately active. Compounds that reproducibly provided 100% protection were listed as confirmed active. […] Note that the inability to provide protection could be due to toxicity.

SMILES | EC50 [µM] | IC50 [µM] | outcome
NS(=O)(=O)c1ccc(N=Cc2cc(Cl)cc(Cl)c2O)cc1 | > 200 | 16.6 | 
N#CC(C#N)=Cc1cc(Cl)ccc1O | > 200 | 29.5 | 
CC(=O)/C(=C/N1CCNC1=S)C(=O)Nc1ccc(Cl)cc1 |  |  | inactive
CC(=O)N1C(=O)CC2(N=C(C)CC2=O)c2ccccc21 (configuration not stated) | > 200 | > 200 | 
Clc1cc(Br)c2c3c(c(Br)cc(Cl)c13)C(Br)=C2Br | > 200 | 20 | 
N#C/C(c1nc2ccccc2[nH]1)=c1\s/c(=C/c2ccccc2)c(=O)n1-c1ccccc1 | > 200 | > 200 | 
CCN(CC)CCCCC1CCN(CC(=O)N2c3cc(Cl)ccc3NC(=O)CC2C)CC1 (configuration not stated) | > 251 | 66.1 | 
CCOC(=O)/C(C#N)=C\Sc1ccccc1 |  |  | inactive
NC(=O)C(=O)N/N=C1/c2ccccc2CC1C1(O)C(=O)Nc2c(Cl)cc(Cl)cc21 (configuration not stated) | > 12 | > 12 | 
O=C(c1ccc(Cl)cc1)N1CC1 | > 200 | 81.3 | 
Cc1cc(=O)cc2sc3cc(Cl)ccc3nc1-2 | > 10.5 | > 10.5 | 
N=c1c2c(ncn1N)CCN(Cc1ccccc1)C2 | > 200 | 30.9 | 
O=C1NC(=O)C(=Cc2ccc3c(c2)OCO3)C(=O)N1 | > 14.5 | > 14.5 | 
COC(=O)/C=C/C(=N/Nc1ccccc1)c1ccccc1 | > 200 | 28.8 | 
CC(=O)N1C(=O)/C(=C\C(=O)c2ccc(Cl)cc2)c2ccccc21 | > 100 | 1.48 | 
O=[N+]([O-])c1c(/C=N/Nc2ccccc2)oc(-c2ccc3c(c2)OCO3)c1-c1ccc2c(c1)OCO2 | > 21.4 | 3.98 | 
CCOC(=O)CC(NCCSS(=O)(=O)O)C(=O)OCC (configuration not stated) | > 200 | > 200 | 
COc1ccc(C(CC(=O)c2ccccc2)C(=O)c2ccc3c(c2)OCO3)cc1 (configuration not stated) | > 200 | > 200 | 
O=c1ssc(Cl)c1Cl | > 200 | 33.9 | 
CCc1cc2c(c3c1CCCC3=O)CC1(Cc3ccc(C(=O)OC)cc3C1)C2 (configuration not stated) | > 200 | 36.3 | 
CC1=NNC(=O)C1C1CC(c2c[nH]c3ccccc23)=NNC1=O (configuration not stated) | > 200 | 155 | 
O=C(Nc1ccc(Cl)c(Cl)c1)n1ncc2ccc([N+](=O)[O-])cc21 | > 200 | 170 | 

SMILES | EC50 [µM] | IC50 [µM] | outcome
CC1c2c(cc(OC(=O)c3cccc(S(=O)(=O)F)c3)nc2OC(=O)c2cccc(S(=O)(=O)F)c2)C(=O)N1Cc1ccccc1 (configuration not stated) | > 11.2 | 1.86 | 
N#Cc1nc(/C=C/c2nc(C#N)c(N)o2)oc1N | > 100 | > 100 | 
OC[C@@H]1C[C@H](F)[C@H](n2cnc3c(Cl)ncnc32)O1 | > 575 | 26.3 | 
COc1ccc(/C=C\c2cc(OC)c(OC)c(OC)c2)cc1O | > 214 | 0.0692 | 
NC(=S)NCC12CC3CC(CC(C3)C1)C2 |  |  | inactive
COc1ccc(/C=C(\C(C)=O)C(=O)Nc2ccccc2)cc1 | > 17.8 | > 17.8 | 
COc1cccc2c1C(=O)C1(O)CCCCC21 (configuration not stated) | 44.7 | > 200 | 
O=S(Cc1ccccc1)/C(=C/NC(=S)Nc1ccccc1)c1ccccc1 (configuration not stated) | 182 | > 200 | 
CCN(CC)CC(=N)N(CC)c1ccccc1 | > 417 | 195 | 
COC1CC(OC2C(C)OC(OC3C(C)OC(OC4C(C)OC(O[C@H]5CC[C@@]6(C)C(=CC[C@]7(O)[C@@H]6C[C@@H](OC(=O)/C=C/c6ccccc6)[C@@]6(C)[C@]7(O)CC[C@@]6(O)C(C)=O)C5)CC4OC)CC3OC)CC2OC)OC(C)C1O (some centres not stated) | > 200 | 21.9 | 
CCCCC#COS(=O)(=O)c1ccc(C)cc1 | > 251 | 138 | 
CCOC(=O)c1ccc(-n2cnc(-c3ccc([N+](=O)[O-])cc3)c2)cc1 | 95.5 | > 200 | 
CC(C)N1CC(=O)N2CSCC2C1=O (configuration not stated) | > 200 | > 200 | 
Nc1ncc(Sc2ccccc2C(=O)O)s1 | > 200 | > 200 | 
C#CCSc1nnnn1-c1ccc(Br)c(C)c1 | > 200 |  | 
C/C(=C(/SS/C(C(=O)O)=C(/C)c1cccc(O)c1)C(=O)O)c1cccc(O)c1 | > 200 | 135 | 
CC1=Nc2c(ccc3c2C(=O)c2ccccc2C3=O)NC(c2ccncc2)C1 (configuration not stated) | > 7.41 | > 7.41 | 
Nc1nc(N)c2c(-c3ccccc3)ccnc2n1 | > 195 | 162 | 
COC(=O)C1Cc2c(OC)ccc(OC)c2CC(C(=O)OC)C1=O (configuration not stated) | > 200 | 182 | 
CC(C)(C)[Si](C)(C)OCC1OC(n2cnc3c(=O)[nH]c(NC(=O)c4ccccc4)nc32)C(O[Si](C)(C)C(C)(C)C)C1O[Si](C)(C)C(C)(C)C (configuration not stated) | > 200 | 9.12 | 
CCOC(=O)C(NS(=O)(=O)c1ccccc1)(C(F)(F)F)P(=O)(OCC(C)C)OCC(C)C (configuration not stated) | > 200 | 64.6 | 
COC(=O)c1cccc(C)c1C1CN=NC12Cc1c(ccc(C)c1C)C2=O (configuration not stated) | > 200 | > 200 | 

SMILES | EC50 [µM] | IC50 [µM] | outcome
CC1(C)OC(=O)CC2(C)OC12 (configuration not stated) | > 200 | > 200 | 
CN1CCC(O)(C(C)(C)C)CC1 | > 200 | > 200 | 
CC(=O)NC(CCC(=O)c1ccc(Cl)cc1)C(=O)O (configuration not stated) | > 200 | > 200 | 
CO[C@H]1/C=C/O[C@@]2(C)Oc3c(C)c(O)c4c(O)c(c(/C=N/N5C(C)CN(Cc6ccc(C#N)cc6)CC5C)c(O)c4c3C2=O)NC(=O)/C(C)=C\C=C\[C@H](C)[C@H](O)[C@@H](C)[C@@H](O)[C@@H](C)[C@H](OC(C)=O)[C@@H]1C (some centres not stated) | > 200 | 9.12 | 
N/C(=N/N=C\c1nccc2ccccc12)NO |  |  | inactive
CC(=O)c1cc2ccccc2n(O)c1=N | > 200 | > 200 | 
CC(=O)Nc1ccc2nncnc2c1 | > 200 | > 200 | 
Cc1ncc([N+](=O)[O-])n1CCNC(=O)Cn1c([N+](=O)[O-])cnc1C | > 200 | > 200 | 
COC(=O)C1=C(OC)C(C(=O)OC)[C@@]2(C)C(C(=O)OC)=C(OC)C(C(=O)OC)[C@@]12C (some centres not stated) | > 417 | > 417 | 
CC(C)(C)CC1=COC(C=O)(CC(C)(C)C)CC1 (configuration not stated) | > 102 | > 102 | 
CC(C)(C)[Si](C)(C)OC[C@H]1O[C@@H](n2ccc(=O)[nH]c2=O)[C@H](O[Si](C)(C)C(C)(C)C)[C@@]12N[C@H](C(=O)O)CS2 | > 200 | 10 | 
O=C(CC(=O)c1ccccc1)CC(O)(c1ccccc1)c1ccccc1 | > 11 | > 11 | 
Cc1cc(S(=O)(=O)Nc2nc(N)nc(N(C)C)n2)c(SC(C(=O)O)c2ccccc2)cc1Cl (configuration not stated) | 85.1 | > 200 | 
CC(C)(C)C(=O)Oc1ccc(/C=C/C(=O)c2ccc(OC(=O)C(C)(C)C)cc2)cc1 | > 200 | 38 | 
Cc1[nH]c2ccccc2c1C1Cc2ccccc2N1C(=O)/C=C/C(=O)O (configuration not stated) | > 724 | 132 | 
COC(=O)C1C=NNC1C(=O)OC (configuration not stated) |  |  | inactive
CSCCC(NP(=S)(c1ccccc1)c1ccccc1)C(=O)O (configuration not stated) | > 200 | > 200 | 
COc1ccc(C2(O)CCCCC2)cc1 | > 66.1 | > 66.1 | 
CCC[CH2][Sn]1([CH2]CCC)[O]CC(CN2CCCCC2)[O]1 (configuration not stated) | > 9.33 | 0.0646 | 
O=[N+]([O-])c1ccc(Cl)c(C=NC23CC4CC(CC(C4)C2)C3)c1 | > 200 | 3.89 | 
O=C1CCCCCN1C(=O)c1ccccc1 | > 1150 | 53.7 | 
CCOC(=O)C(CCc1ccccn1)C(C)=O (configuration not stated) | > 200 | > 200 | 

SMILES | EC50 [µM] | IC50 [µM] | outcome
CC(=O)C1=C(N=[N+]=[N-])c2cccc3cccc(c23)C1=O |  |  | inactive
O=c1nc2n(c3nsnc13)CCO2 | > 132 | > 132 | 
Cc1ccccc1N1C(=O)[N+]2(CCCCC2)N=C1[O-] | > 955 | 295 | 
Cc1ccc(S(=O)(=O)/C(C#N)=C\NC(=S)N=Nc2c(O)[nH]c3ccccc23)cc1 | > 200 | > 200 | 
CC(=O)N(CN1C(=O)CCC1C(=O)O)c1ccc(C)cc1 (configuration not stated) |  |  | inactive
CCc1cc2c(c3c1CCC3=O)CC1(Cc3ccc(C)cc3C1)C2 (configuration not stated) | > 200 | 135 | 
Cc1cccc2c1c(=O)c1c(O)cc(O)cc1n2C | > 200 | > 200 | 
C=CCn1cnc2c(=O)[nH]c(Nc3ccccc3)nc21 | > 151 | > 151 | 
N/N=C(/Cc1nc2ccc(C(=O)c3ccccc3)cc2[nH]c1=O)C(=O)Nc1ccc([N+](=O)[O-])cc1[N+](=O)[O-] | > 50.1 | > 50.1 | 
CCC(C)(C)c1ccc(OCCCCNC(=O)c2ccc3ccccc3c2O)c(C(C)(C)CC)c1 | > 200 | 7.41 | 
CC(O)CN1C(=O)c2cccc3cc([N+](=O)[O-])cc(c23)C1=O (configuration not stated) | > 200 | 12 | 
CN(NC(=O)/C(=C\c1ccco1)NC(=O)c1ccccc1)c1cn[nH]c(=O)c1Cl | > 200 | 38.9 | 
COc1cccc2c1C(=O)c1c(O)c3c(c(O)c1C2=O)C[C@@](O)(C(=O)CO)C[C@@H]3OC1CC(N)C(O)C(C)O1 (some centres not stated) | > 2.51 |  | 
CC1CCCN2C(=O)CN(C3CCCCC3)CC(=O)N12 (configuration not stated) | > 200 | > 200 | 
CCCCCCCCCCCCNC(=S)OCCCC |  |  | inactive
CC(NC(=O)C(NC(=O)C(NC(=O)C(F)(F)F)C(C)C)C(C)C)C(=O)Oc1c(Cl)c(Cl)c(Cl)c(Cl)c1Cl (configuration not stated) | > 200 | 141 | 
O/N=C1\CC(c2ccccc2)Oc2ccccc21 (configuration not stated) | > 200 | 126 | 
CC(=O)c1ccc(NC(=O)C(=O)C(C(=O)/C=C/c2ccccc2)C2OC(=O)c3ccccc32)cc1 (configuration not stated) | > 282 | 148 | 
CCOC(=O)CC(=O)C(=O)NNC1=NCCCN1 | > 200 | > 200 | 
C=C(CCC(Cl)[C@@H]1COC(/C=C/C)O1)[Si](C)(C)C (some centres not stated) | > 123 | > 123 | 
